Test results as given in patent publication US12491187B2, “Use of MCT1 inhibitors to enhance insulin sensitivity” (H. LEE MOFFIT CANCER CENTER AND RESEARCH INSTITUTE, INC., priority 2022, dated 2025).

Key:
Format in all cases: cell-based, murine
[1] = system: differentiated 3T3-L1 (WT) cells; assay: Glucose uptake (Glucose Uptake-Glo) in WT adipocytes; conditions: for insulin-stimulated glucose uptake: then 175 nM insulin 30 minutes
Protocol: (§1) Glucose Uptake: 3T3-L1 cells were seeded and differentiated in clear bottom 96-well plates (Corning®). After differentiation, cells were treated with or without […] AZD3965 for 24 hr, 48 hr or 72 hr as illustrated in FIG. 7 (schematic outline of experimental procedure). The cells were incubated in serum free media the night before performing the assay. The following day/morning, media was changed to serum and glucose free media for 2 hr prior to the experiment. Cells were then stimulated with 175 nM Insulin or vehicle (PBS) for 30 minutes. Glucose Uptake was measured using the Glucose Uptake-Glo™ Assay (Promega®) according to the manufacturer's protocol. The data generated were normalized by dividing the relative luminescence units (RLU) measured in insulin stimulated wells by vehicle treated controls. The aforementioned experiment was repeated in the presence of the CDK1 inhibitor, RO-3306 (10 μM), where indicated (FIG. 5C).

[2] = system: differentiated 3T3-L1 cells; assay: RT-qPCR of mRNA levels in differentiated adipocytes
Protocol: RT-qPCR: RNA was harvested from preadipocytes using the RNeasy® Plus Mini Kit as per manufacturer's recommendations (Qiagen). For differentiated adipocytes, RNA was collected and isolated using TRIzol (Thermo Fisher Scientific) according to the manufacturer's instructions. Quantification of RNA was performed using the Nanodrop 1000 Spectrophotometer. RNA (2 μg) was reverse transcribed using Superscript III First Strand synthesis kit (Invitrogen). RT-qPCR detection with SYBR green was performed with the resulting cDNA and a 50/50 forward primer: reverse primer ratio using the QuantStudio™ 5 (Applied Biosystems™). Oligonucleotide primer sequences used in this study can be found in the table below.

[3] = system: 3T3-L1-shMCT1 cells; assay: Glucose uptake (Glucose Uptake-Glo) in MCT1 knockdown cells
Protocol: Cell Line Development: Lenti plasmid vectors containing shRNA targeting MCT1 or a shScramble sequence were purchased from Genocopia. Lentiviral particles were produced using HEK293T cells and a third-generation packaging system, MISSION Lentiviral Packaging Mix, as per manufacturer's (Sigma-Aldrich) recommendations. To generate shMCT1 cells, 3T3-L1 cells were seeded and transduced with optimized titers of freshly harvested lentivirus. 12 hr after transduction, medium was changed, and cells were allowed to recover for 24 h before being placed under antibiotic selection (2 μg/mL puromycin [Clontech]) for 3-6 days. Cells surviving antibiotic selection were harvested for both reverse transcription quantitative chain polymerase reaction (RT-qPCR) and immunoblotting analyses.
as §1, with “The following day/morning, media was changed to serum and glucose free media for 2 hr prior to the experiment. Cells were then stimulated with 175 nM Insulin or vehicle (PBS) for 30 minutes.” left out, “The aforementioned experiment was repeated in the presence of the CDK1 inhibitor, RO-3306 (10 μM), where indicated (FIG. 5C).” left out

[4] = system: differentiated 3T3-L1 cells; assay: NADP+ + NADPH bioavailability (NADP+/NADPH-Glo); conditions: 1 μM
Protocol: NADP++NADPH Bioavailability: 3T3-L1 cells were seeded, differentiated and treated with or without AZD3965 (1 μM) for up to 72 hr in clear 96 well plates (Corning®). Following treatment, the NADP+/NADPH-Glo™ (Promega®) kit was used to measure the total NADP++NADPH concentration within each sample according to the manufacturer's instructions. In the presence of either NADP+ or NADPH, an enzyme ‘Reductase’ reduces a pro-luciferin reductase substrate to form luciferin which emits a luminescent signal directly proportional to the quantity of NADP+ and NADPH. Luminescence was read on a spectrophotometer (FlexStation 3; Molecular Devices).

[5] = system: differentiated 3T3-L1 adipocytes; assay: Adipokine antibody array on conditioned media; conditions: 72 hr treatment, media conditioned 24 hr
Protocol: Adipokine Antibody Array: 3T3-L1 cells were differentiated and treated with or without AZD3965 for 72 hr. After this incubation, media was replenished, and adipocytes were cultured for an additional 24 hr to allow for adipokine secretion and media conditioning. Media was collected and analyzed for adipokine secretion with the Proteome Profiler Mouse Adipokine Array Kit (R&D Systems) according to the manufacturer's instructions. Chemiluminescence was detected with the LI-COR Odyssey® XF Imaging System with a 2 minute exposure time. Positive signals were quantified using Image Studio™ (LI-COR Biosciences) to quantify signal intensity. Data presented represent signal intensity normalized by the signal intensity of reference antibodies within the array.

[6] = system: differentiated 3T3-L1 cells; assay: Proliferation (CyQUANT NF) of differentiated adipocytes; conditions: 72 hr treatment, all concentrations ≥1 μM
Protocol: Proliferation: 3T3-L1 cells were seeded and differentiated in black clear bottom 96-well plates (Corning®). After differentiation, wells were treated with vehicle or AZD3965 concentrations ranging from 10 nM to 10 µM for 24 hr, 48 hr or 72 hr as indicated. Cell viability was measured at the end of each treatment time using the CyQUANT™ NF Cell Proliferation assay (Invitrogen™) according to the manufacturer's protocols.

[7] = system: preadipocytes (3T3-L1); assay: Proliferation (CyQUANT NF) of preadipocytes; conditions: 72 hr
[8] = system: differentiated 3T3-L1 adipocytes; assay: Hyperplasia (intracellular triglycerides, Triglyceride-Glo)
Protocol: Hyperplasia (Intracellular Triglycerides): 3T3-L1 cells were seeded and differentiated in clear bottom 96-well plates (Corning®). After differentiation, cells were treated with or without 1 μM AZD3965 for 24 hr, 48 hr or 72 hr. After compound incubation, media was changed to normal growth media with or without 100 nM insulin and cultured for an additional 72 hrs. Upon completion of the second incubation period, adipocytes were lysed and subjected to the Triglyceride-Glo™ Assay (Promega®) according to the manufacturer's instructions. The luminescent signal produced is proportional to the amount of triglycerides detected within the sample. Luminescence was read on a spectrophotometer (FlexStation 3; Molecular Devices).

[9] = differentiated adipocytes, 1 μM, 24 hr
[10] = mature adipocytes, 24 hr treatment

**Q.** `Cc1[nH]nc(C(F)(F)F)c1Cc1sc2c(c1C(=O)N1C[C@](C)(O)CO1)c(=O)n(C)c(=O)n2C(C)C` [AZD3965, 5-[[(4S)-4-hydroxy-4-methyl-2-isoxazolidinyl]carbonyl]-3-methyl-1-(1-methylethyl)-6-[[5-methyl-3-(trifluoromethyl)-1H-pyrazol-4-yl]methyl]-thieno[2,3-d]pyrimidine-2,4 (1H, 3H)-dione] was tested. Which insulin-stimulated glucose uptake ([1]; 1 μM for 24 hr) did it give?
**A.** did not reach statistical significance

**Q.** And the insulin-stimulated glucose uptake ([1]; 1 μM for 48 hr and 72 hr)?
**A.** significant increase

**Q.** What about the “basal, non-insulin stimulated glucose uptake” value ([1]; 1 μM, 24-72 hr) of the same molecule?
**A.** no impact

**Q.** And the “CDK1 mRNA level” value [2, 9]?
**A.** significant upregulation

**Q.** What about the “Cyclin B mRNA level” value [2, 9] of the same molecule?
**A.** significant upregulation

**Q.** And the “PLK1 mRNA level” value [2, 9]?
**A.** significant upregulation

**Q.** And the “TOP2A mRNA level” value [2, 9]?
**A.** significant upregulation

**Q.** What about the “FABP4 mRNA levels” value [2, 10] of the same molecule?
**A.** significantly increased

**Q.** And the “HSL mRNA levels” value [2, 10]?
**A.** significantly decreased

**Q.** What about the PPARγ transcript levels [2, 10] of the same molecule?
**A.** significant decrease

**Q.** What about the insulin-stimulated glucose uptake ([3]; 1 μM for 72 hr, 175 nM insulin) of the same molecule?
**A.** do not respond to insulin as robustly as WT 3T3-L1 cells or show any increase

**Q.** What about the “basal, non-insulin stimulated glucose uptake” value ([3]; 1 μM, up to 72 hr) of the same molecule?
**A.** no significant changes

**Q.** What about the “concentration of NADP+/NADPH cofactor species” value ([4]; 24 hr, 48 hr and 72 hr) of the same molecule?
**A.** subtle, yet significant decrease

**Q.** And the “decrease in intracellular concentrations of NADP+ (H)” value ([4]; up to 72 hr)?
**A.** less than 15%

**Q.** And the “adipokine levels in conditioned media” value [5]?
**A.** no significant differences

**Q.** What about the “total cell number (proliferation)” value [6] of the same molecule?
**A.** significant increase in total cell number

**Q.** What about the proliferation [7] of the same molecule?
**A.** no effect on proliferation

**Q.** And the total triglyceride content ([8]; pretreated 1 μM 24 hr and 72 hr, then cultured 72 hr with 100 nM insulin)?
**A.** did not reach statistical significance

**Q.** And the total triglyceride content ([8]; pretreated 1 μM 48 hr, then cultured 72 hr with 100 nM insulin)?
**A.** significantly more triglycerides

**Q.** What about the total triglyceride content ([8]; pretreated 1 μM up to 72 hr, then cultured 72 hr without insulin) of the same molecule?
**A.** significantly more triglycerides
